The structures appear in SMILES notation. “Also recorded” adds a separate entry of the source. Read-outs that look alike come from different tables or passages of the source.

What all share (design): 6xHis with TEV protease site (N, cleaved yes); made in house; host or cells: E. coli BL21-CodonPlus
Assay [1] deals with T1, eIF4A (Homo sapiens, UniProt P60842). Description: kinetic testing using the malachite green assay (ATP and RNA titration). Conditions: for Alpha value for ATP / Ki / Alpha value for RNA: mixed-model inhibition fit. It counts as biochemical. The protocol: ATP titration (left) used 250 μg/mL RNA. Data were fit using unbiased mixed-model inhibition in Prism 6.0. Alpha value for ATP is 0.424, indicating an ATP-uncompetitive inhibitor. Kiapp for ATP is 10.3 μM. RNA titration (right) used 250 μM ATP. […] Kiapp for RNA is 9.59 μM. Data shown are an average of 3 independent experiments.
ATP titration (left) was done with 250 μg/mL RNA. Data were fit using unbiased mixed-model inhibition in Prism 6.0. Alpha value for ATP is 0.514, indicating an ATP-uncompetitive inhibitor. Kiapp for ATP=4.79 μM. RNA titration (right) was done with 250 μM ATP. […] Kiapp for RNA=4.27 μM. Data shown are an average of 3 independent experiments.
(§1) ATPase assay. Recombinant WT or mutant eIF4A was added to a clear bottom 384 well plate (Greiner) in ATPase buffer (20 mM Tris pH 7.4, 80 mM KCl, 2.5 mM MgCl2, 1 mM DTT, 1% glycerol). Compounds were added and the plate was incubated at 37° C. for 20 min. ATP/RNA solution was added to afford a 20 μL per well reaction volume with 750 nM eIF4A, 250 μM ATP, and 0.25 mg/mL Yeast RNA (Sigma) for the initial screen and dose responses, and varying concentrations of ATP and RNA for the kinetic assays. The plate was incubated for 4 h at 37° C. for the initial screen and dose responses, and at seven time points (1 hour-7 hours) for kinetic assays. 0.04% v/v (final concentration) Tween-20 was added to a Malachite Green solution, and the Malachite Green (40 μL per well) was added. The solution was incubated for 5 minutes at room temperature and Absorbance at 660 nm was read on a SpectraMax iD5 plate reader (Molecular Devices).

Assay [2] addresses T1, eIF4A. As to the kind of experiment: RNA-stimulated malachite green ATPase assay. It counts as biochemical. The settings on record: for IC50: 750 nM eIF4A, 250 μM ATP, 0.25 mg/mL Yeast RNA, 4 h at 37° C. How it is done:
Human eIF4A protein was produced recombinantly and a greater than 100,000-compound screen for inhibitors was completed using a malachite green ATPase assay (FIG. 11A). […] A stable mixture of yeast RNAs was added in an effort to improve this system and create a more biologically relevant eIF4A assay. eIF4A ATPase activity was accelerated without a statistically significant increase in the background signal in the presence of this RNA (FIG. 11B), and the new conditions gave excellent statistical parameters in a 384-well plate format (FIG. 11C).
as §1

Assay [3] concerns the target T1, eIF4A. As to the kind of experiment: MANT-ATP fluorescence polarization assay. It counts as binding. The settings on record: compound 200 μM or ADP 1 mM; MANT-ATP 100 nM. The protocol:
Additional biochemical testing was performed on compound 28 to investigate its mechanism of eIF4A inhibition. Initially, kinetics experiments were repeated with compound 28, and the results for compound 28 matched those of compound 1 (FIG. 5D, 4A). Upon addition of compound 28, Km and Vmax of eIF4A decreased with respect to ATP. With respect to RNA, eIF4A Km […] and Vmax remained constant. […] Fluorescence polarization (FP) assays were utilized to confirm this mechanism of inhibition by testing the ability of compound 28 to compete fluorescent substrates off eIF4A. First, an FP assay was performed with MANT-ATP, a fluorescent, non-hydrolysable ATP analog, as the substrate.
MANT-ATP fluorescence polarization assay. Recombinant eIF4A (15 μM) was added to a low-volume black 384 well plate (Greiner). Yeast RNA (0.25 mg/mL) was added along with compound (200 μM) or ADP (1 mM) and the plate was incubated for 20 min. MANT-ATP was added (100 nM) and the plate was incubated for 30 min before fluorescence polarization was read at 355 nm:448 nm (Ex:Em) on a SpectraMax iD5 plate reader (Molecular Devices).
(In fluorescence polarisation assays a small probe gives low polarisation when free and higher when bound to something large.)

The target in assay [4] is T1, eIF4A. As to the kind of experiment: Thermal Shift Assay (TSA)/Differential Scanning Fluorimetry (DSF). Conditions: 5 μM eIF4A, 2 mM AMPPNP. It counts as binding. How it is done: Further evidence of this was uncovered in a thermal shift assay (TSA) using DSF with eIF4A and compound 28. […] Larger doses of compound 28 caused larger melting temperature (Tm) shifts in this assay, which argues that compound 28 is directly binding eIF4A.
Thermal Shift Assay (TSA)/Differential Scanning Fluorimetry (DSF). TSA/DSF experiments were performed on a Lightcycler 480 II (Roche Molecular Systems). eIF4A (5 μM) in buffer (20 mM Tris (pH 7.5), 10% glycerol, 0.1 mM EDTA, 2 mM DTT, 2 mM AMPPNP, 4% DMSO) was added to 96-well PCR plates (USA Scientific, Inc.) with or without compound. After a 5 min incubation, SYPRO orange dye was added to a final concentration of 5×. Samples were melted over a gradient from 20 to 85° C. with 20 acquisitions per ° C. at a ramp rate of 0.03° C./s.

Where [5] appears, read: ATP titration, 250 μg/mL RNA, read-out: Kiapp for ATP.
[6] abbreviates: RNA titration, 250 μM ATP, read-out: Kiapp for RNA.

T1 sequence (P60842 whole entry): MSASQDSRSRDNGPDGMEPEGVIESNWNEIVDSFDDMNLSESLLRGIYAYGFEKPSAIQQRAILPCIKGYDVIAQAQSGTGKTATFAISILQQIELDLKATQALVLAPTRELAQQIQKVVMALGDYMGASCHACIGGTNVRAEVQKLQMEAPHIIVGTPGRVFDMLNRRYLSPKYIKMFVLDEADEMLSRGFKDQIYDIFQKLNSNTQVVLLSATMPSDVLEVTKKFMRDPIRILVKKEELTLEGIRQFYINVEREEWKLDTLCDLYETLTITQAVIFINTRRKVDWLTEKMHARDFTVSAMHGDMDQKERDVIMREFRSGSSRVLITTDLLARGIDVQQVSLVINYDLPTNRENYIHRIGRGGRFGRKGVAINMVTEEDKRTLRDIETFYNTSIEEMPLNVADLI

Take `CCCCc1ccc(-c2ccc(-c3cc(C(=O)O)c4cc(Br)ccc4n3)o2)cc1` [Compound 1, 6-bromo-2-(5-(4-butylphenyl)furan-2-yl)quinoline-4-carboxylic acid]: on eIF4A [1], the “mechanism of inhibition with respect to ATP” value was “uncompetitive with respect to ATP” and the “mechanism of inhibition with respect to RNA” value is “RNA-competitive”. Besides, at eIF4A [1] (ATP titration, 250 μg/mL RNA), the “Alpha value for ATP” value is 0.424. Moreover, the Ki at eIF4A [1] (setting [5]) was 10.3 µM. For the same compound, the “Alpha value for RNA” value at eIF4A [1] (RNA titration, 250 μM ATP) is 4.53×10^13. The Ki on eIF4A [1] (setting [6]) is 9.59 µM. Also, the IC50 (commonly the midpoint of a concentration-inhibition curve) on eIF4A [2] came to 26.6 ± 2.46 µM.
Regarding `CCCCc1ccc(-c2ccc(-c3cc(C(=O)O)c4cc([N+](=O)[O-])ccc4n3)o2)cc1` [Compound 28, 2-(5-(4-butylphenyl)furan-2-yl)-6-nitroquinoline-4-carboxylic acid], at eIF4A [1], the “mechanism of inhibition with respect to ATP” value was “ATP-uncompetitive” and the “mechanism of inhibition with respect to RNA” value is recorded as “RNA-competitive”. Besides, at eIF4A [1] (ATP titration, 250 μg/mL RNA), the “Alpha value for ATP” value turned out to be 0.514. Besides, the Ki at eIF4A [1] (setting [5]) is 4.79 µM. Also, the “Alpha value for RNA” value on eIF4A [1] (RNA titration, 250 μM ATP) is 4.52×10^21. Besides, the Ki on eIF4A [1] (setting [6]) is 4.27 µM. In addition, on eIF4A [3], the “competition of MANT-ATP off eIF4A” value was “not an ATP-competitive inhibitor”. Also, the “eIF4A thermal stability / melting temperature (TSA)” value on eIF4A [4] was “increased eIF4A stability”. At eIF4A [2], the IC50 was 8.6 ± 0.944 µM. Moreover, the “potency in the eIF4A ATPase assay (in words)” value on eIF4A [2] (comparison within the series) is listed as “most potent inhibitor of eIF4A ATPase activity; also recorded: over two-fold more potent than any other molecule previously produced in the series”.

Source of the values: patent US20240360107A1, “AN EIF4A INHIBITOR WITH A NOVEL MECHANISM OF ACTION” (ARIZONA BOARD OF REGENTS ON BEHALF OF THE UNIVERSITY OF …, priority 2021, published 2024).
